Reference: PubChem BioAssay AID1963963 (Molecular Pharmacology Branch, DTP, NCI, 2024)
Values joined by “and” are separate entries in the source; they are usually repeats but may differ in a detail not shown here. Identical values can stand only once.

System: 958667-338-R-J2-PDC tumor spheroids viability
Test: Anticancer human tumor 958667-338-R-J2-PDC patient-derived colon adenocarcinoma cell line growth inhibition [PI3K]
Settings: spheroids with HUVEC and MSC; for viability, T/C: stronger effect = lower value
How it was run: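 Targeted small molecules plus PI3K inhibitors, half-log dose series from Cmax (default top 10 microM), were applied to heterotypic spheroids of cancer cells with HUVEC and MSCs. Viability indicated growth inhibition.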
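Further: spheroids exposed to compounds for seven days before readout.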

Question: Which results are given for `CC1(C)CCC(CN2CCN(c3ccc(C(=O)NS(=O)(=O)c4ccc(NCC5CCOCC5)c([N+](=O)[O-])c4)c(Oc4cnc5[nH]ccc5c4)c3)CC2)=C(c2ccc(Cl)cc2)C1` + COc1c(OCCCN2CCOCC2)ccc2c3n(c(=NC(=O)c4cnc(N)nc4)nc12)CCN3?
Answer: IC50 (curve of first compound, second compound 0.00316 µM): 6.52 µM; IC50 (curve of first compound, second compound 0.01 µM): 5.73 µM; IC50 (curve of first compound, second compound 0.0316 µM): 5.21 µM; IC50 (curve of first compound, second compound 0.1 µM): 3.76 µM; IC50 (curve of first compound, second compound 0.316 µM): < 0.0316 µM; IC50 (curve of first compound, second compound 1 µM): < 0.0316 µM; viability, T/C (second compound 0.00316 µM, first compound 0.0316 µM): 76.5%; viability, T/C (second compound 0.00316 µM, first compound 0.1 µM): 96.3%; viability, T/C (second compound 0.00316 µM, first compound 0.316 µM): 80.3%; viability, T/C (second compound 0.00316 µM, first compound 1 µM): 98.8%; viability, T/C (second compound 0.00316 µM, first compound 3.16 µM): 103%; viability, T/C (second compound 0.00316 µM, first compound 10 µM): 25.6%; viability, T/C (second compound 0.01 µM, first compound 0.0316 µM): 71.8%; viability, T/C (second compound 0.01 µM, first compound 0.1 µM): 85.9%; viability, T/C (second compound 0.01 µM, first compound 0.316 µM): 72.5%; viability, T/C (second compound 0.01 µM, first compound 1 µM): 76.6%; viability, T/C (second compound 0.01 µM, first compound 3.16 µM): 75.8%; viability, T/C (second compound 0.01 µM, first compound 10 µM): 25.9%; viability, T/C (second compound 0.0316 µM, first compound 0.0316 µM): 77.6%; viability, T/C (second compound 0.0316 µM, first compound 0.1 µM): 66.2%; viability, T/C (second compound 0.0316 µM, first compound 0.316 µM): 61.6%; viability, T/C (second compound 0.0316 µM, first compound 1 µM): 69%; viability, T/C (second compound 0.0316 µM, first compound 3.16 µM): 80.6%; viability, T/C (second compound 0.0316 µM, first compound 10 µM): 22.6%; viability, T/C (second compound 0.1 µM, first compound 0.0316 µM): 58%; viability, T/C (second compound 0.1 µM, first compound 0.1 µM): 53.4%; viability, T/C (second compound 0.1 µM, first compound 0.316 µM): 48.8%; viability, T/C (second compound 0.1 µM, first compound 1 µM): 53.9%; viability, T/C (second compound 0.1 µM, first compound 3.16 µM): 69.6%; viability, T/C (second compound 0.1 µM, first compound 10 µM): 11.9%; viability, T/C (second compound 0.316 µM, first compound 0.0316 µM): 45.8%; viability, T/C (second compound 0.316 µM, first compound 0.1 µM): 42.3%; viability, T/C (second compound 0.316 µM, first compound 0.316 µM): 33.9%; viability, T/C (second compound 0.316 µM, first compound 1 µM): 33.5%; viability, T/C (second compound 0.316 µM, first compound 3.16 µM): 32.5%; viability, T/C (second compound 0.316 µM, first compound 10 µM): 4.13%; viability, T/C (second compound 1 µM, first compound 0.0316 µM): 19.7%; viability, T/C (second compound 1 µM, first compound 0.1 µM): 15.1%; viability, T/C (second compound 1 µM, first compound 0.316 µM): 19%; viability, T/C (second compound 1 µM, first compound 1 µM): 21.9%; viability, T/C (second compound 1 µM, first compound 3.16 µM): 18.2%; viability, T/C (second compound 1 µM, first compound 10 µM): 2.25%

Question: `Cn1nccc1Nc1nccc(-c2ccn(C(CO)c3ccc(Cl)c(F)c3)c(=O)c2)n1` (stereo not drawn) was tested. Which viability, T/C (compound 0.0316 µM) did it give?
Answer: 102% [middle of 4 runs]

Question: And the viability, T/C (compound 0.316 µM)?
Answer: 95.4% [middle of 4 runs]

Question: And the viability, T/C (compound 1 µM)?
Answer: 86.6% [middle of 4 runs]

Question: And the viability, T/C (compound 3.16 µM)?
Answer: 89.5% [middle of 4 runs]

Question: And the IC50 (curve of compound)?
Answer: > 10 µM

Question: Which viability, T/C (compound 0.000316 µM) does the source give for `CC(=O)c1c(C)c2cnc(Nc3ccc(N4CCNCC4)cn3)nc2n(C2CCCC2)c1=O` here?
Answer: 110% [middle of 4 runs]

Question: And the viability, T/C (compound 0.00316 µM)?
Answer: 107% [middle of 4 runs]

Question: And the viability, T/C (compound 0.01 µM)?
Answer: 109% (2×) and 88% and 111%

Question: What about the viability, T/C (compound 0.0316 µM) of the same compound?
Answer: 99.5% and 114% (2×) and 106%

Question: What about the viability, T/C (compound 0.1 µM) of the same compound?
Answer: 93.8% [middle of 4 runs]

Question: What about the IC50 (curve of compound) of the same compound?
Answer: > 0.1 µM
